Results taken from publication PMC11106745 (ACS Chemical Biology, 2024).
Where “and” joins values, the source holds several entries; their conditions need not be identical. Equal entries are not always repeated. Where two headings read alike, the source gives them in different places.

Assays:
[1] = target: T1, SARS-CoV-2 Mac1 (Severe acute respiratory syndrome coronavirus 2, UniProt P0DTD1); assay: biochemical; type: binding
[2] = target: T2, MERS-CoV Mac1 (Middle East respiratory syndrome-related coronavirus, UniProt K9N7C7); assay: biochemical; type: binding
T2 sequence (K9N7C7 1110-1276 limits assumed): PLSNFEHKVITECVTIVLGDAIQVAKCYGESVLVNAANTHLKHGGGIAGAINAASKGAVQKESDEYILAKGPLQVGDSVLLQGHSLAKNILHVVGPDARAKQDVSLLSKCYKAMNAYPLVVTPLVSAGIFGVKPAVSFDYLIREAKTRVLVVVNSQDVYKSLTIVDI

[3] = target: T3, VEEV Mac (Venezuelan equine encephalitis virus, UniProt P27282); assay: biochemical; type: binding
T3 sequence (P27282 1330-1489 limits assumed): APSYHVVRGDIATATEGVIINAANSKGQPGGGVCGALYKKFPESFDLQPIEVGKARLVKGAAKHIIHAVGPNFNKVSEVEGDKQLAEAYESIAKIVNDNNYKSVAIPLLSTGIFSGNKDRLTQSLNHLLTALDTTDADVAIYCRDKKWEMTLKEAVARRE

[4] = target: T4, CHIKV Mac (Chikungunya virus, UniProt Q8JUX6); assay: biochemical; type: binding
T4 sequence (Q8JUX6 1334-1493 limits assumed): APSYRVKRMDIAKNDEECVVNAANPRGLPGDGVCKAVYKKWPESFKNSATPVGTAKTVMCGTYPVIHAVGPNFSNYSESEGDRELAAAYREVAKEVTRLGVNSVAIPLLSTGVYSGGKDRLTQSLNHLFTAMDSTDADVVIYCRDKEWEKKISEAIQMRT

[5] = target: T5, MacroD1 (Homo sapiens, UniProt Q9BQ69); assay: IC50 curves of binding to MacroD1 (Figure S2); settings: Figure S2, fitted
T5 construct: made in house
T5 sequence (Q9BQ69 1-325): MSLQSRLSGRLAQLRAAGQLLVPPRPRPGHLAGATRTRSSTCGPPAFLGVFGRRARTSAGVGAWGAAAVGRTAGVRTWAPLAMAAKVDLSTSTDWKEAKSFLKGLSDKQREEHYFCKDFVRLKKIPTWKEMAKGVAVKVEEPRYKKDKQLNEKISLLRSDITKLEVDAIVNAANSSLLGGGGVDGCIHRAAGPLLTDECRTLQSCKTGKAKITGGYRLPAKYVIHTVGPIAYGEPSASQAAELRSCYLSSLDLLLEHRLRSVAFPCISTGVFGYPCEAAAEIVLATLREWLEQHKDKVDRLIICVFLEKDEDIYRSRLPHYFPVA

[6] = target: T6, MacroD2 (Homo sapiens, UniProt A1Z1Q3); assay: IC50 curves of binding to MacroD2 (Figure S2); settings: Figure S2, fitted
T6 construct: made in house
T6 sequence (A1Z1Q3 1-425): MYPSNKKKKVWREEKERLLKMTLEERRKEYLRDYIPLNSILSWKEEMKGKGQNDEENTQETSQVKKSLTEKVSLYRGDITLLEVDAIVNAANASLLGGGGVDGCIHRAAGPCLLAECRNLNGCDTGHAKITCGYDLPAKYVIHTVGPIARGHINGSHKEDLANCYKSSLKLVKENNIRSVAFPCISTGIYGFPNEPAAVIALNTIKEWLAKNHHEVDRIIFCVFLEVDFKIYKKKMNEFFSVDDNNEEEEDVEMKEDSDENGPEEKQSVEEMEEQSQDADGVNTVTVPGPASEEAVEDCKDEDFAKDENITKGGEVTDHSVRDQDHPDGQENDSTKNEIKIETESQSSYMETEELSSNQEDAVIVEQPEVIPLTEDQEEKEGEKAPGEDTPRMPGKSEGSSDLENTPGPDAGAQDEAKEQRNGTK

[7] = target: T1, SARS-CoV-2 Mac1; assay: biochemical; type: binding; remark: listed apart in the source
[8] = target: T2, MERS-CoV Mac1; assay: biochemical; type: binding; remark: listed apart in the source
[9] = target: T3, VEEV Mac; assay: biochemical; type: binding; remark: listed apart in the source
[10] = target: T4, CHIKV Mac; assay: biochemical; type: binding; remark: listed apart in the source
[11] = target: T1, SARS-CoV-2 Mac1; settings: cited from earlier work

SMILES | IC50 [2] | IC50 [3] | IC50 [4] | Kd ([7]; Kd) | Kd [8] | Kd [9] | Kd [10] | further results
N#CC1(c2ccc3c(N)ncnn23)OC(COP(=O)(O)OP(=O)(O)OCC2OC(O)C(O)C2O)C(O)C1O (stereo not shown) [NDPr] | 2900 nM | 510 nM | 920 nM | – | – | – | – | IC50 [1]: 800 nM and 170 nM and 290 nM; IC50 [5]: > 10000 nM; IC50 [6]: > 10000 nM
Nc1ncnc2c1ncn2[C@@H]1O[C@H](COP(=O)(O)OP(=O)(O)OC[C@H]2O[C@H](Oc3ccccc3)[C@H](O)[C@@H]2O)[C@@H](O)[C@H]1O [Ph-ADPr] | 1800 nM | 7300 nM | 126000 nM | – | – | – | – | IC50 [1]: 1900 nM and 730 nM and 1500 nM
N#C[C@@]1(c2ccc3c(N)ncnn23)O[C@H](COP(=O)(O)OP(=O)(O)OC[C@H]2O[C@H](Oc3ccccc3)[C@H](O)[C@@H]2O)[C@@H](O)[C@H]1O [Ph-NDPr] | 460 nM | 220 nM | 9300 nM | – | – | – | – | fold better IC50 than ADPr [1]: 6000 fold; fold better IC50 than NDPr [1]: 100 fold; fold better IC50 than Ph-ADPr [1]: 500 fold
CN(C)c1ccc2c(c1)Oc1cc(N(C)C)ccc1C21OC(=O)c2cc(C(=O)NCCCCCCNC(=O)CCc3cn([C@H]4O[C@H](COP(=O)(O)OP(=O)(O)OC[C@H]5O[C@@H](n6cnc7c(N)ncnc76)[C@H](O)[C@@H]5O)[C@@H](O)[C@H]4O)nn3)ccc21 [TAMRA-ADPr, reference compound] | – | – | – | 2100 nM | 830 nM | 1700 nM | 7200 nM | –
CN(C)c1ccc2c(c1)Oc1cc(N(C)C)ccc1C21OC(=O)c2cc(C(=O)NCCCCCCNC(=O)CCc3cn([C@H]4O[C@H](COP(=O)(O)OP(=O)(O)OC[C@H]5O[C@@](C#N)(c6ccc7c(N)ncnn67)[C@H](O)[C@@H]5O)[C@@H](O)[C@H]4O)nn3)ccc21 [TAMRA-NDPr] | – | – | – | 15 nM | 130 nM | 39 nM | 208 nM and 210 nM | fold more potent than TAMRA-ADPr [7]: over 100 fold; fold affinity improvement over TAMRA-ADPr [10]: more than 30 fold
CN(C)c1ccc2c(c1)Oc1cc(N(C)C)ccc1C21OC(=O)c2cc(C(=O)NCCCCCCNC(=O)CCc3cn(Cc4ccc(O[C@H]5O[C@H](COP(=O)(O)OP(=O)(O)OC[C@H]6O[C@@](C#N)(c7ccc8c(N)ncnn78)[C@H](O)[C@@H]6O)[C@@H](O)[C@H]5O)cc4)nn3)ccc21 [TAMRA-Ph-NDPr] | – | – | – | 5.3 nM | 11 nM | 10 nM | 810 nM | fold more potent than TAMRA-ADPr [7]: over 100 fold; Kd ([7]; Calculated Kd): 2.3 nM
Nc1ncnc2c1ncn2C1OC(COP(=O)(O)OP(=O)(O)OCC2OC(Oc3ccc4c(C(F)(F)F)cc(=O)oc4c3)C(O)C2O)C(O)C1O (stereo not shown) [TFMU-ADPr] | – | – | – | – | – | – | – | IC50 [11]: 590 nM; fold more potent than ADPr [11]: > 20 fold
